Test [1] deals with human embryonic spinal cord neurons. Description: Survival and neurite outgrowth of human embryonic spinal cord neurons on injured glial cells of the human spinal cord. It counts as cell-based. The following applies: for survival (numbers) of spinal cord neurons on lesioned glial monolayers / numbers of spinal cord neurons extending long neurites (>100 μm): 72 hrs; for numbers of spinal cord neurons extending long neurites (>100 μm): lesioned glial monolayers. An excerpt: The CNS tissues were first placed in cold saline. The spinal cord tissues were identified under a stereomicroscope, and carefully freed of meninges. To obtain monolayer cultures of human spinal cord glial cells, the cells were dissociated by mechanical trituration using a Pasteur-pipette, and placed in Petri dishes (Corning, N.Y., USA) containing 10% fetal calf serum (Hyclone, Logan, UH) in DMEM-F12 (Gibco, U.K.) supplemented with penicillin and streptomycin as described (Liesi et al. 2001).
Freshly isolated tissue from the human embryonic spinal cord (8-10 weeks of age) was mechanically dissociated and cells were plated at 50,000 on a 22 mm glass coverslip confluent with human embryonic spinal cord glia. The glial monolayers were injured using a 18 G needle prior to plating of the neurons. The cells were cultured in normal adult human serum for 72 hrs. The numbers of spinal cord neurons on the glial monolayers in the presence or absence of KDI (0.0355 μg/ml-1.0 μg/ml) was estimated on TUJ1-labelled cultures. The statistical analysis was performed using one-way-variance analysis (ANOVA), and the Student-Newman-Keuls multiple comparisons test.
Confluent cultures of the spinal cord glial cells were trypsinized using Trypsin-EDTA, and cells replated at a density of 5×10^4 on a 22 mm glass coverslip. The cells were cultivated until they formed confluent monolayers. At this point, their culture medium was changed into 10% normal adult human serum in DMEM-F12, and glial monolayers were injured using 18 G-needle. After injury, the KDI peptide (Multiple Peptide Systems, La Jolla, Calif., USA) was added into the culture medium after which a suspension of freshly dissociated cells from spinal cord or neocortex was added at 2×10^4 on one coverslip. After 24-48 hrs, the cultures were fixed in 2% paraformaldehyde in PBS, pH 7.4 for 15 min and immunostained for TUJ1 as described previously (Liesi et al., 2001).
Viability and neurite outgrowth of human CNS-neurons on the spinal cord glial cells were evaluated by counting 10 random fields of cells in 6 different cultures. A total of 265 cells were counted. The numbers of long neurites (>10 cell soma) were estimated similarly. One-way-variance analysis (ANOVA) was used to evaluate the results.

Test [2] concerns human CNS neurons. The experiment in a line: Attachment and neurite outgrowth of human embryonic CNS neurons on synthetic peptides coupled to glass. It counts as cell-based. As to conditions: 0.1-10 μg/ml, peptide covalently cross-linked to glass, 24 hrs. The procedure: The cells were dissociated by trituration in a sterile culture medium (RPMI 1640) containing penicillin (100 U/ml), streptomycin (100 μg/ml) and 200 μM L-glutamine. The dissociated cells were plated on glass coverslips pre-coated (Liesi et al., 1989) with mouse laminin-1 (Boehringer-Mannheim, Germany) or with the peptides KDI-gc and RDIAEIIKDI-gc (SEQ ID NO: 1), as described elsewhere (Matsuzawa et al., 1996b). The peptides were from the Multiple Peptide Systems (La Jolla, Calif.). The cultures were maintained for 24 hrs, fixed in 2% paraformaldehyde, and processed for immunocytochemistry.
Immunocytochemistry for neuron specific tubulin isoform TUJ1 was performed as described elsewhere (Liesi et al., 2001). In short, the cells were permeabilized in methanol for 5 min at −20° C., washed in PBS and incubated with monoclonal TUJ1-antibodies for 1 hr at room temperature. The antibody was of high specificity and was used at 1:500 dilution. After immunocytochemistry, the coverslips were mounted in PBS:glycerol (1:1) and viewed with Olympus Provis fluorescence microscope with appropriate filter combinations.

Test [3] concerns spinal cord injuries of adult male rats. The experiment in a line: Spinal cord injuries of adult male rats: complete lumbar spinal cord transection, mini pump administration. It counts as in vivo, Sprague-Dawley rats. As for the experimental part: Complete transections of the lumbar spinal cord under deep pentobarbiturate anesthesia were made to 40 adult male Sprague-Dawley rats. Osmotic mini pumps were implanted subcutaneously to allow continuous flow of the KDI peptide (KDI-group) used at pre-tested concentrations (10-100 μg/ml) or a placebo (placebo-group). Morphine was given to both of the groups to alleviate the postoperative pain. The animals underwent weekly tests of their motor function during a period of three months. The motor score testing was carried out using a standard set of tests of motor evaluation (walking, tow-spread, placing and withdrawal). The mini pumps initially provided the drugs for 30 days, and when feasible, additional experiments were carried out with prolonged (up to 3 months) application. After 3 months, the animals in each group were euthanized and spinal cords were either deep frozen for immunocytochemistry, biochemistry and RNA-work, or fixed in 4% paraformaldehyde for in situ hybridization and histological analysis of recovery. […]
Preliminary motor scores were obtained from animals treated with KDI, and from control animals. […] The scores for each animal were calculated by adding up the walking scores obtained within a 12 week follow-up-time after the operation. […] The scores of six animals in placebo-group and six-animals, in the KDI-group were analysed and statistically compared. […]

KDI: the “survival (numbers) of spinal cord neurons on lesioned glial monolayers” value is “significantly (p<0.001) enhanced survival” in test [1] (0.0355 μg/ml), “significantly (p<0.001) enhanced survival” in test [1] (0.1 μg/ml), “did not promote survival of the spinal cord neurons any better than the lesion by itself” in test [1] (0.5 μg/ml) and “did not promote survival of the spinal cord neurons any better than the lesion by itself” in test [1] (1.0 μg/ml). Also, in test [1] (0.1 μg/ml in culture medium, 48 hrs), the “neurite extension of TUJ1-immunoreactive spinal cord neuron on injured glial monolayers” value is “extends a long neurite”. Besides, the “numbers of spinal cord neurons extending long neurites (>100 μm)” value is recorded as “significantly increased the numbers of long neurites” in test [1] (0.1 μg/ml, p<0.001) and “significantly increased the numbers of long neurites” in test [1] (1.0 μg/ml, vs lesion-control). Also, the “attachment and neurite outgrowth of human CNS neurons” value in test [2] is “supported attachment and neurite outgrowth”. The “connective tissue scar at the dorsal pole of the spinal cord vs placebo” value in test [3] (adult rats three months after injury, stereomicroscopic images) is “considerably smaller”. Moreover, the “mean motor score (sum of walking scores)” value in test [3] (rats with total spinal cord transection, 12 week follow-up, six animals, ±SEM, placebo 11±2.4, normal animal 120, P 0.0022, preliminary) was 78±5.8.

(Values after patent US7741436B2, “Biologically active peptides and their use for repairing injured nerves” (priority 2001, dated 2010).)
